Target: T1, magnesium chelatase (ChlI, His6-ChlD, His6-ChlH); porphyrin site (Synechocystis sp. PCC 6803, UniProt P73020)
T1 construct: recombinant from E. coli; His6 tags on ChlD and ChlH; copies are assay ratio; with Magnesium-chelatase subunit ChlI; Magnesium-chelatase subunit ChlD
Assay: continuous fluorometric MgDIX formation assay, Michaelis-Menten fit
Format: biochemical
Details: 5 mM ATP, Mg2+ (mutant not saturated with Mg2+), pH 7.7, 34 °C, I 0.1

T1 sequence (P51634 whole entry, form open): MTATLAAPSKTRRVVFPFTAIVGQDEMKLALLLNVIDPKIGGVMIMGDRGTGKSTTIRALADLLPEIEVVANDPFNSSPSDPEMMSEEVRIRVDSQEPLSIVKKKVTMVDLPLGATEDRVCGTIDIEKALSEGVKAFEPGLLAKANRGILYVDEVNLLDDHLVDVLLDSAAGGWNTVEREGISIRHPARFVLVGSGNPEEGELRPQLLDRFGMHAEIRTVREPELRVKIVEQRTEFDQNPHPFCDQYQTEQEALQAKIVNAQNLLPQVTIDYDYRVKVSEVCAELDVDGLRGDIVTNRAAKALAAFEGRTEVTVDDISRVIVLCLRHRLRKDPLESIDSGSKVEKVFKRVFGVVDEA
T1 sequence (P73020 entry or part of it, form open): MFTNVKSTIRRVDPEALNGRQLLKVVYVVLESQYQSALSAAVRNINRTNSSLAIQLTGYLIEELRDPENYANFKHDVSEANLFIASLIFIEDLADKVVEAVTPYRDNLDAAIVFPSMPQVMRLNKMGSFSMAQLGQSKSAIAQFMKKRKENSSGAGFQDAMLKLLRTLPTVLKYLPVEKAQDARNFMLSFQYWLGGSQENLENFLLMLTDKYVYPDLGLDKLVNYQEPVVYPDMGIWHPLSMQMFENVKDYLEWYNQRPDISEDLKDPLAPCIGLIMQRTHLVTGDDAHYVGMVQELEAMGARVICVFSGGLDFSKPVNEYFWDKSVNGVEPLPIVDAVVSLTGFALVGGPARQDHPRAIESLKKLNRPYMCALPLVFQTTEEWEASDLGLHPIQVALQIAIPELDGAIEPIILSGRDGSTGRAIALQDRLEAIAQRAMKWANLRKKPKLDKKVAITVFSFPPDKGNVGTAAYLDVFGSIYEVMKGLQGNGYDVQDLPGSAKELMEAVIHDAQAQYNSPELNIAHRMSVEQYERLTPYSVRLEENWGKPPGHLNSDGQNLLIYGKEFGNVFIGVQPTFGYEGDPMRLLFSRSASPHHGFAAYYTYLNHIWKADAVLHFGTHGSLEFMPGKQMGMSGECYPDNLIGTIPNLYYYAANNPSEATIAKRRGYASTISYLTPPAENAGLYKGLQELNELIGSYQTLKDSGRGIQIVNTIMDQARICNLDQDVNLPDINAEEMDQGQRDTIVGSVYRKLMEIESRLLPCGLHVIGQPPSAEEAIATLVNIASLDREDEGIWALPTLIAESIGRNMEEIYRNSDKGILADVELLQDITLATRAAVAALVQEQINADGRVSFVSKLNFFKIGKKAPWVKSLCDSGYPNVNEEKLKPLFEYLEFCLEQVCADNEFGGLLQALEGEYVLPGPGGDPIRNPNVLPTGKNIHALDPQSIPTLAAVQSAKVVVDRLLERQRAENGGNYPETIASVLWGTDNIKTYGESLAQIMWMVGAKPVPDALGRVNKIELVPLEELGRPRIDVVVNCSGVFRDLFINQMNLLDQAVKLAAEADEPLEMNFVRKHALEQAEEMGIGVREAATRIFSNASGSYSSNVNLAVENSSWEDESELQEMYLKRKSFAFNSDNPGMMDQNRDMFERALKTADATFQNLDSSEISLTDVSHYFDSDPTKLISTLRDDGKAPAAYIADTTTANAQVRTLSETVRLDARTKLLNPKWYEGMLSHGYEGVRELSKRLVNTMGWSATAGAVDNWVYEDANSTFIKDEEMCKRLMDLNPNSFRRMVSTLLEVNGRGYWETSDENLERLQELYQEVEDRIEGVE
T1 sequence (P72772 whole entry R289A, form open, further chain): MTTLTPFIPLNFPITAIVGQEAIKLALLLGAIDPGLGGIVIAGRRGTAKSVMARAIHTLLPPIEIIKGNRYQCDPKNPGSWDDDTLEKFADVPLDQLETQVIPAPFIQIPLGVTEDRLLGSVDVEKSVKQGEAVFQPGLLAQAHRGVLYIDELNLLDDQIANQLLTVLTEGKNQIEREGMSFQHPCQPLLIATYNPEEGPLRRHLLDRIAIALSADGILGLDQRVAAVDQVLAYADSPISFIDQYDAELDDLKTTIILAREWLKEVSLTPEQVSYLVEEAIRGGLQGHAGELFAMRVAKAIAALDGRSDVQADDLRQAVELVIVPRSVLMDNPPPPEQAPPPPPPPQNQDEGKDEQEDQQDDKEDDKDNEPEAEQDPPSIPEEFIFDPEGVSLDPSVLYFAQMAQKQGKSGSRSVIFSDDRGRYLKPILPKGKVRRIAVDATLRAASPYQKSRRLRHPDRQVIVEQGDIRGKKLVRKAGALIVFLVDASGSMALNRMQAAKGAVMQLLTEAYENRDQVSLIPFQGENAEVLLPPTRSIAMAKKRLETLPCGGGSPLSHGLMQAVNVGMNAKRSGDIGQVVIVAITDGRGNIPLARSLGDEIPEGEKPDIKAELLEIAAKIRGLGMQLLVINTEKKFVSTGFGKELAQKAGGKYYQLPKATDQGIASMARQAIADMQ

`CC1=C(CCC(=O)O)c2cc3nc(cc4[nH]c(cc4C)cc4[nH]c(cc1n2)cc4C)C(C)=C3CCC(=O)O` [deuteroporphyrin IX] was tested, and the Km was 0.99 ± 0.12 µM.

Source: paper PMC3789969, “The Allosteric Role of the AAA^+ Domain of ChlD Protein from the Magnesium Chelatase of Synechocystis Species PCC 6803” (The Journal of Biological Chemistry, 2013)
